molecular target: TEAD2 (Homo sapiens (Human), UniProt Q15562); test: In vitro palmitoylation (TEAD2 autopalmitoylation, streptavidin blot); format: biochemical; settings: compound at 10 μM
Experimental: Recombinant GST-TEAD2 or His6TEAD2 (500 ng) protein was pre-incubated with the compounds at indicated concentrations for 15 min. and then incubated with 1 μM of alkyne palmitoyl-5 CoA (Cayman Chemical) for 30 min or 50 mM MES, pH 6.4, followed by Click reaction with biotin-azide as previously described (Zheng, B. et al., J. Am. Chem. Soc., 2013, 135, 7082-7085). Click reaction was performed with 100 μM biotin-azide, 1 mM tris(2-carboxyethyl) phosphine hydrochloride (TCEP), 100 μM tris[(1-benzyl-1H-1,2,3-triazol-4-yl) methyl] amine (TBTA) and 1 mM CuSO4 for 1 h at RT.
The reactions were terminated by the addition of 12 μL of 6×SDS-sample loading buffer (50 mM Tris-HCl, pH 6.8, 6% SDS, 48% Glycerol, 0.03% Bromophenol Blue, 30 mM EDTA, 9% MeSH). Samples were analysed by SDS-PAGE and Western blot was performed by probing with streptavidin HRP and histidine HRP antibodies independently. Bands intensity obtained from streptavidin blot were quantified using BIORAD, Gel doc system and the percentage of inhibition of Tead2 auto palmitoylation is determined by comparing to the DMSO control treated samples.
These compounds were tested for activity in inhibiting TEAD2 palmitoylation in the assay described above.

TEAD2, sequence (Q15562 whole entry): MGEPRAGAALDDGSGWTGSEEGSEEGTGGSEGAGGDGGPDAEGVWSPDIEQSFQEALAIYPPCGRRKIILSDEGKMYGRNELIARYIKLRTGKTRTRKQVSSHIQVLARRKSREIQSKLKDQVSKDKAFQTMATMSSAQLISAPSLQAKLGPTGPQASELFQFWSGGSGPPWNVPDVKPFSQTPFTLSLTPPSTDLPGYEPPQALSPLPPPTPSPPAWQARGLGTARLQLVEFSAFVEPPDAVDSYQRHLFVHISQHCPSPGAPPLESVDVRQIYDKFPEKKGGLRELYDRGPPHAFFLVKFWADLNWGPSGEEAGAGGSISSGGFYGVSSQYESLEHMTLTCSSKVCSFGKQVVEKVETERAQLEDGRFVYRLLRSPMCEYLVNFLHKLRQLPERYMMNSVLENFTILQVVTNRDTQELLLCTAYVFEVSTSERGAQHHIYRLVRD

| inhibition at 10 µM [%] | Structure (SMILES) |
| --- | --- |
| 50 | O=C(Nc1ccc(C23CC4CC(CC(C4)C2)C3)cc1)c1cccnc1Nc1cccc(C(F)(F)F)c1 |
| 5 | C=CC(=O)c1ccccc1Nc1ccc(Nc2ccc(C34CC5CC(CC(C5)C3)C4)cc2)cc1 |
| 5 | O=C(Nc1ccc(C23CC4CC(CC(C4)C2)C3)cc1)c1ccc2nc[nH]c2c1 |
| 80 | O=C(OCC(O)CO)c1ccccc1Nc1ccc(Nc2ccc(C34CC5CC(CC(C5)C3)C4)cc2)cc1 (stereo not shown) |
| 20 | O=C(Nc1ccc(C23CC4CC(CC(C4)C2)C3)cc1)Nc1ccc2nc[nH]c2c1 |
| 20 | Clc1cc(C23CC4CC(CC(C4)C2)C3)ccc1Nc1ccc(Nc2ccccc2-c2nnn[nH]2)cc1 |
| 20 | O=C(Nc1ccc(C23CC4CC(CC(C4)C2)C3)cc1Cl)c1ccc2nc[nH]c2c1 |
| 8 | O=C(CN1CCC[C@H]1C(=O)O)Nc1ccc(C23CC4CC(CC(C4)C2)C3)cc1 |
| 80 | N#Cc1cc(Nc2ccc(C34CC5CC(CC(C5)C3)C4)cc2)ccc1Nc1ccccc1C(=O)O |
| 100 | CC(C)(C)OC(=O)c1ccc(Nc2ccc(Nc3ccccc3C(=O)O)cc2)cc1 |
| 100 | CC(C)c1ccccc1-c1ccc(NC(=O)CC2CN(C(=O)OC(C)(C)C)C2)cc1 |

same assay, conditions: compound at 10 μM; Table 2

| inhibition at 10 µM [%] | Structure (SMILES) |
| --- | --- |
| 53 | O=C(Nc1ccc(Nc2ccc(C34CC5CC(CC(C5)C3)C4)cc2Cl)cc1)[C@H]1CCC[C@H]1C(=O)O (stereo in doubt) [compound 288] |
| 0 | CC(C)COc1ccc(Nc2ccc(N(C)c3ccc(C45CC6CC(CC(C6)C4)C5)cc3)cc2)c(C(=O)O)c1 [CP-453] |

same assay, conditions: compound at 10 μM; Table 3

| Structure (SMILES) | inhibition at 10 µM [%] |
| --- | --- |
| COCCC(=O)Nc1ccc(C(=O)OC)c(Nc2ccc(N(C)c3ccc(C45CC6CC(CC(C6)C4)C5)cc3)cc2)c1 [CP-472] | 1 |
| COCCC(=O)Nc1ccc(C(=O)O)c(Nc2ccc(N(C)c3ccc(C45CC6CC(CC(C6)C4)C5)cc3)cc2)c1 [CP-473] | 50 |
| COc1ccc(Nc2ccc(N(C)c3ccc(C45CC6CC(CC(C6)C4)C5)cc3)cc2)c(CO)c1 [CP-516] | 20 |
| CN(C)CCOc1ccc(Nc2ccc(N(C)c3ccc(C45CC6CC(CC(C6)C4)C5)cc3)cc2)c(C(=O)O)c1 [CP-526] | 23 |
| COc1ccc(Nc2ccc(N(C)c3ccc(C45CC6CC(CC(C6)C4)C5)cc3)cc2F)c(C(=O)O)c1 [CP-537] | 73 |
| O=C(O)c1ccccc1Nc1cnc(Oc2ccc(C34CC5CC(CC(C5)C3)C4)cc2Cl)cn1 [CP-540] | 75 |
| CN(c1ccc(Nc2ncccc2C(=O)O)cc1)c1ccc(C(F)(F)F)cc1 [CP-541] | 80 |
| O=C(O)c1ccccc1Nc1ccc(Oc2ccc(C(F)(F)F)cc2Cl)cc1 [CP-543] | 98 |
| CN(c1ccc(Nc2ncccc2C(=O)O)cc1)c1ccc(C2CCCCC2)cc1 [CP-558] | 66 |
| O=C(O)c1ccccc1Nc1cnc(Oc2ccc(C3CCCCC3)cc2Cl)cn1 [CP-559] | 79 |
| Cc1cc(Oc2ccc(C34CC5CC(C)(CC(C)(C5)C3)C4)cc2Cl)ccc1Nc1ccccc1C(=O)O [CP-561] | 90 |
| COc1ccc(Nc2ccc(Oc3ccc(C45CC6CC(C)(CC(C)(C6)C4)C5)cc3Cl)cc2C)c(C(=O)O)c1 [CP-564] | 89 |
| COc1ccc(Nc2ccc(F)cc2Oc2ccc(C34CC5CC(C)(CC(C)(C5)C3)C4)cc2Cl)c(C(=O)O)c1 [CP-569] | 59 |
| Cc1cc(N(C)c2ccc(C3CCCCC3)cc2)ccc1Nc1ccc(C(F)(F)F)cc1C(=O)O [CP-579] | 61 |
| Cc1cc(N(C)c2ccc(C3CCCCC3)cc2)ccc1Nc1ccc(OC(F)(F)F)cc1C(=O)O [CP-580] | 58 |
| COc1ccc(Nc2cccc(C(=O)Nc3ccc(C(F)(F)F)cc3)c2)c(C(=O)O)c1 [CP-586] | 40 |
| COc1ccc(Nc2ccc(Oc3ccc(C4CCCCC4)cc3Cl)nc2)c(C(=O)O)c1 [CP-591] | 88 |
| COc1ccc(Nc2cnc(N(C)c3ccc(C4CCCCC4)cc3)nc2)c(C(=O)O)c1 [CP-594] | 46 |

More lines, now with the values ahead:

| inhibition at 10 µM [%] | Structure (SMILES) |
| --- | --- |
| 54 | COc1ccc(Nc2ccc(N(C)c3ccc(Cl)cc3)cc2)c(C(=O)O)c1 [CP-535] |
| 84 | COCCOc1ccc(Nc2ccc(N(C)c3ccc(C4CCCCC4)cc3)cc2)c(C(=O)O)c1 [CP-536] |
| 49 | COc1ccc(Nc2ccc(N(C)c3ccc(Cl)cc3Cl)cc2)c(C(=O)O)c1 [CP-542] |
| 98 | COc1ccc(Nc2ccc(Oc3ccc(C(F)(F)F)cc3Cl)cc2)c(C(=O)O)c1 [CP-544] |
| 6 | COc1ccc(Nc2ccc(N(C)c3ccccc3OC)cc2)c(C(=O)O)c1 [CP-545] |
| 18 | COc1ccc(Nc2ccc(N(C)c3ccc(N4CCOCC4)cc3)cc2)c(C(=O)O)c1 [CP-547] |
| 74 | COc1ccc(Nc2ccc(N(C)c3ccc(C4CCC(F)(F)CC4)cc3)cc2)c(C(=O)O)c1 [CP-552] |
| 61 | COc1ccc(Nc2ccc(N(C)c3ccc(C4CCC4)cc3)cc2)c(C(=O)O)c1 [CP-556] |
| 34 | COc1ccc(Nc2ccc(N(C)c3ccc(C4=CCC(F)(F)CC4)cc3)cc2)c(C(=O)O)c1 [CP-557] |
| 80 | COc1ccc(Nc2ccc(N(C)c3ccc(C(F)(F)F)cc3)cc2C)c(C(=O)O)c1 [CP-563] |
| 6 | COc1ccc(Nc2ccc(N(C)c3ccc(CN4CCCCC4)cc3)cc2)c(C(=O)O)c1 [CP-567] |
| 46 | COc1ccc(Nc2ccc(N(C)c3ccc(OCC(F)(F)F)cc3)cc2F)c(C(=O)O)c1 [CP-568] |
| 72 | COc1ccc(Nc2ccc(N(C)c3ccc(C(F)(F)F)cc3)cc2F)c(C(=O)O)c1 [CP-572] |
| 74 | COc1ccc(Nc2ccc(N(C)c3ccc(S(F)(F)(F)(F)F)cc3)cc2F)c(C(=O)O)c1 [CP-573] |
| 91 | COc1ccc(Nc2ccc(N(C)c3ccc(C4CCC(C)CC4)cc3)cc2)c(C(=O)O)c1 (stereo not shown) [CP-574] |
| 47 | COc1ccc(Nc2ccc(Oc3ccc(C(F)F)cc3Cl)cc2)c(C(=O)O)c1 [CP-575] |
| 42 | COc1ccc(Nc2ccc(N(C)c3ccc(C(F)(F)F)cn3)cc2)c(C(=O)O)c1 [CP-576] |
| 79 | COc1ccc(Nc2ccc(N(C)c3ccc(C4CC5CCC4C5)cc3)cc2C)c(C(=O)O)c1 (stereo not shown) [CP-577] |
| 31 | COc1ccc(Nc2ccc(N(C)c3ccc(C4CCCCC4)nc3)cc2)c(C(=O)O)c1 [CP-578] |
| 40 | COc1ccc(Nc2ccc(N(C)c3ccc(C4CCCCC4)cn3)cc2)c(C(=O)O)c1 [CP-581] |
| 0 | COc1ccc(Nc2ccc(N(C)c3ccc(C4CCN(C)CC4)cc3)cc2)c(C(=O)O)c1 [CP-582] |
| 36 | COc1ccc(Oc2ccc(N(C)c3ccc(C(F)(F)F)cc3)cc2)c(C(=O)O)c1 [CP-587] |
| 36 | COc1ccc(Nc2ccc(N(C)c3nc(C(F)(F)F)cs3)cc2)c(C(=O)O)c1 [CP-588] |
| 40 | COc1ccc(Nc2ccc(N(C)c3ccc(C(F)(F)F)cc3)nc2)c(C(=O)O)c1 [CP-592] |
| 51 | COc1ccc(Nc2ccc(N(C)c3ccc(S(F)(F)(F)(F)F)cc3)nc2)c(C(=O)O)c1 [CP-595] |
| 48 | COc1ccc(Nc2ccc(N(C)c3ccc(OC(F)(F)F)cc3)nc2)c(C(=O)O)c1 [CP-596] |
| 63 | COc1ccc(Nc2ccc(N(C)c3nc(C4CCCCC4)cs3)cc2)c(C(=O)O)c1 [CP-597] |

From patent US12187722B2, “Small molecule inhibitors of TEAD transcription factors” (The General Hospital Corporation, priority 2019, dated 2025)
